This is an account of results in ChEMBL document CHEMBL5321255, “Sumatranins A-J: Lignans with Immunosuppressive Activity from Cleistanthus sumatranus” (J Nat Prod, 2023).

Structures are written as SMILES.

For data set [1], the system named is Splenocyte. Briefly: Immunosuppressive activity in BALB/c mouse splenocytes assessed as inhibition of ConA-induced T cell proliferation by measuring [3H]-thymidine uptake by beta scintillation counter analysis. It is filed as functional, cell-based.
A short description of data set [2]: Cytotoxicity against BALB/c mouse splenocytes incubated for 48 hrs by MTT assay. It is filed as toxicity, cell-based, Splenocyte. For orientation: Tetrazolium dyes change colour on reduction, which living cells bring about.
The nature of data set [3]: Selectivity index, ratio of CC50 for cytotoxicity against BALB/c mouse splenocyte to IC50 for immunosuppressive activity in BALB/c mouse splenocytes assessed as inhibition of LPS-induced B cell proliferation. The following applies: read-out: Ratio CC50/IC50. It is filed as cell-based.
Data set [4] can be described thus: Selectivity index, ratio of CC50 for cytotoxicity against BALB/c mouse splenocyte to IC50 for immunosuppressive activity in BALB/c mouse splenocytes assessed as inhibition of ConA-induced T cell proliferation. It is filed as cell-based. The following applies: read-out: Ratio CC50/IC50.
Data set [5] has as its system Splenocyte. Briefly: Immunosuppressive activity in BALB/c mouse splenocytes assessed as inhibition of LPS-induced B cell proliferation by measuring [3H]-thymidine uptake by beta scintillation counter analysis. It is filed as functional, cell-based.

As to `COc1cc2c(cc1O)O[C@H]1OC[C@H](Cc3cc4c(cc3O)OCO4)[C@H]1C2`, the IC50 with Splenocyte [1] amounted to 14.8 µM; in the data set on Splenocyte [5], 12.1 µM. In data set [2], the cytotoxic concentration (CC50) at 48 h came to 82.5 µM. The selectivity ratio in data set [3] came to 6.8; in data set [4], 5.6.

On to `OC[C@H](Cc1ccc2c(c1)OCO2)[C@](O)(CO)Cc1cc2c(cc1O)OCO2`, for which the IC50 came to 27.3 µM in the data set on Splenocyte [1] and 18.2 µM in the data set with Splenocyte [5]. This compound also had a cytotoxic concentration (CC50) at 48 h in data set [2] of 99.3 µM. Besides, in data set [4], the selectivity ratio was found to be 3.6.

Regarding `Oc1cc2c(cc1C[C@H]1CO[C@@H]3Oc4cc5c(cc4C[C@H]13)OCO5)OCO2`, the IC50 in the data set on Splenocyte [1] was 51.7 µM; with Splenocyte [5] it was 32.8 µM. For the same compound, in data set [2], the half-maximal cytotoxic concentration (CC50) at 48 h was determined as 90.3 µM. The selectivity ratio worked out at 2.8 in data set [3] and 1.7 in data set [4].

As for `OC[C@H](Cc1cc2c(cc1O)OCO2)[C@](O)(CO)Cc1cc2c(cc1O)OCO2`, the half-inhibitory concentration (IC50) was found to be 56.2 µM in the data set on Splenocyte [1] and 26.7 µM in the data set with Splenocyte [5]. It took 108 µM to reach half-maximal cytotoxicity in data set [2] (CC50 at 48 h). The values for the selectivity ratio in data set [3] and in data set [4] were 4.1 and 1.9, respectively.

As for `COc1cc(C[C@H]2CO[C@@H]3Oc4cc5c(cc4C[C@H]23)OCO5)ccc1O`, the concentration for half-maximal inhibition (IC50) is 10.1 µM in the data set with Splenocyte [1] and 2.7 µM with Splenocyte [5]. The compound further gave a 50% cytotoxic concentration (CC50) at 48 h in data set [2] of 40.1 µM. The selectivity ratio in data set [3] is 14.9; in data set [4], 4.

Turning to `O=C(Cc1ccc2c(c1)OCO2)[C@H](CO)Cc1ccc2c(c1)OCO2`, the concentration for half-maximal inhibition (IC50) is 18 µM in the data set with Splenocyte [1] and 3.9 µM in the data set on Splenocyte [5]. In data set [2], this compound came in with a CC50 at 48 h of 68 µM. Moreover, the selectivity ratio was found to be 17.5 in data set [3] and 3.8 in data set [4].

By IC50 is commonly meant the concentration needed to halve the response being measured. For orientation: CC50 means the concentration that lowers cell viability or growth by half. A higher CC50 goes with better tolerance by the cells.
